Reference: patent US20230233690A1, “ANDROGEN RECEPTOR PROTEIN DEGRADERS” (THE REGENTS OF THE UNIVERSITY OF MICHIGAN, priority 2020, published 2023)
Where two headings read alike, the source gives them in different places.

What was measured:
[1] = biological target: T1, AR protein (Homo sapiens, UniProt P10275); test: Western blotting of AR protein degradation in VCaP cells; format: cell-based
T1 construct: endogenous in cells; host or cells: VCaP
T1 sequence (P10275 1-920): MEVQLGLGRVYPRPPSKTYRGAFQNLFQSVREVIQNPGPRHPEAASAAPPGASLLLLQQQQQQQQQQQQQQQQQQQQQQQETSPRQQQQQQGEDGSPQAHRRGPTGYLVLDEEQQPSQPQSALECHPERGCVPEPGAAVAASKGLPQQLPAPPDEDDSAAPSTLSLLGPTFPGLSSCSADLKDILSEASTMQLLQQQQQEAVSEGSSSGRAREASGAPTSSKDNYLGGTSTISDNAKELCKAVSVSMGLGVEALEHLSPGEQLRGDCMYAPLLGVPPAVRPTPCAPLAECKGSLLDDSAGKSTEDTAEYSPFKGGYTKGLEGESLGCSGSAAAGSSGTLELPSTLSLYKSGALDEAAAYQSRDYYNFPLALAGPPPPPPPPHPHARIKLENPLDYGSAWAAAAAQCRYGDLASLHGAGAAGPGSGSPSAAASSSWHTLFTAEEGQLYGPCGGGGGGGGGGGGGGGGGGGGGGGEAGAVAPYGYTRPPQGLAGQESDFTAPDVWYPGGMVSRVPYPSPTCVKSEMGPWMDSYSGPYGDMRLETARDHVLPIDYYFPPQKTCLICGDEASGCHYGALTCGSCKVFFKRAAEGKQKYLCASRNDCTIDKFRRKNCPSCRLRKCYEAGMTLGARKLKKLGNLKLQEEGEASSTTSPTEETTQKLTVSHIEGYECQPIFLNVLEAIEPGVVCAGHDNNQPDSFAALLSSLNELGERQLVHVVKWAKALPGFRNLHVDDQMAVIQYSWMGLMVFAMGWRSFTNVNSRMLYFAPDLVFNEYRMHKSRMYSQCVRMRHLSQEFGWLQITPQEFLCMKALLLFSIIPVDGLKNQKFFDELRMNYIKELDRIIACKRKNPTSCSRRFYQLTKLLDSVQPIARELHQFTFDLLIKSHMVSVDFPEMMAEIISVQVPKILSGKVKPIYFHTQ
Experimental: The treated cells were lysed with RIPA buffer. […] GAPDH was used as a loading control.
Bands were quantified with ImageJ software. The relative numbers of each band obtained from normalization with its corresponding GAPDH level were compared with Prism 8 software. The DC50 values were produced from Prism 8, and the DC90 values were calculated with an equation=Bottom+(Top−Bottom)/(1+10^((Log EC50−X)*HillSlope) based on DC50 and Hillslope values.

[2] = PK parameters in male mice (Table 9); format: in vivo; settings: for Vd: read-out: Vss
Experimental: The pharmacokinetics (PK) of representative Compounds of the Disclosure were evaluated in mice or rats to provide an assessment of their oral bioavaibility. All animal experiments were performed under the guidelines of the University of Michigan Committee for Use and Care of Animals and using an approved animal protocol.

[3] = ICR, mouse, in vivo, IV 1 mg/kg
[4] = ICR, mouse, in vivo, IV 1 mg/kg, read-out: AUC(0-t)
[5] = ICR, mouse, in vivo, PO 3 mg/kg
[6] = ICR, mouse, in vivo, PO 3 mg/kg, read-out: AUC(0-t)
[7] = ICR, mouse, in vivo, PO 3 mg/kg, read-out: Cmax
[8] = ICR, mouse, in vivo, PO 3 mg/kg, read-out: Tmax
[9] = ICR, mouse, in vivo, IV 2 mg/kg

Row | Compound | % AR protein degradation in VCaP Cells ([1]; 0.001 μM) [%] | % AR protein degradation in VCaP Cells ([1]; 0.01 μM) [%] | % AR protein degradation in VCaP Cells ([1]; 0.1 μM) [%] | Vd [2, 3] [L/kg] | AUC(0-t) ([2]; IV 1 mg/kg) [ng·h/mL] | Cl ([2]; IV 1 mg/kg) [mL/min/kg] | T1/2 ([2]; IV 1 mg/kg) [h] | AUC(0-t) ([2]; PO 3 mg/kg) [ng·h/mL] | Cmax ([2]; PO 3 mg/kg) [ng/mL] | T1/2 ([2]; PO 3 mg/kg) [h] | Tmax ([2]; PO 3 mg/kg) [h] | F ([2]; PO 3 mg/kg vs IV 1 mg/kg) [%] | % AR protein degradation in VCaP Cells ([1]; 1 μM) [%] | clearance [2, 3] [mL/min/kg] | other results
1 | CN(c1ccc(C#N)c(Cl)c1)[C@H]1CC[C@H](NC(=O)c2ccc(N3CCN(C4CCN(c5ccc6c(c5)C(=O)N(C5CCC(=O)NC5=O)C6=O)CC4)CC3)cc2)CC1 (stereo partly shown) [Cpd. No. 235, N-((1r,4r)-4-((3-chloro-4-cyanophenyl)(methyl)amino)cyclohexyl)-4-(4-(1-(2-(2,6-dioxopiperidin-3-yl)-1,3-dioxoisoindolin-5-yl)piperidin-4-yl)piperazin-1-yl)benzamide] | 94 | 99 | 99.9 | 2.64 | 3366 | 4.5 | 7.6 | 3001 | 256.1 | 7.0 | 4.7 | 29 | – | – | –
2 | CN(c1ccc(C#N)c(Cl)c1)[C@H]1CC[C@H](NC(=O)c2ccc(N3CCN(C4CN(c5ccc6c(c5)C(=O)N(C5CCC(=O)NC5=O)C6=O)C4)CC3)cc2)CC1 (stereo partly shown) [Cpd. No. 238, N-((1r,4r)-4-((3-chloro-4-cyanophenyl)(methyl)amino)cyclohexyl)-4-(4-(1-(2-(2,6-dioxopiperidin-3-yl)-1,3-dioxoisoindolin-5-yl)azetidin-3-yl)piperazin-1-yl)benzamide] | 78 | 90 | 89 | – | – | – | – | – | – | – | – | – | 78 | – | AUC(0-t) ([2]; IV 2 mg/kg): 6481 ng·h/mL; Cl ([2]; IV 2 mg/kg): 5 mL/min/kg; T1/2 ([2]; IV 2 mg/kg): 5.5 h; Vss ([2]; IV 2 mg/kg): 1.8 L/kg; AUC(0-t) ([2]; PO 5 mg/kg): 8254 ng·h/mL; Cmax ([2]; PO 5 mg/kg): 1140 ng/mL; T1/2 ([2]; PO 5 mg/kg): 4.6 h; Tmax ([2]; PO 5 mg/kg): 2.0 h; F ([2]; PO 5 mg/kg vs IV 2 mg/kg): 51%
3 | N#Cc1ccc(O[C@H]2CC[C@H](NC(=O)c3ccc(N4CCN(C5CCN(c6ccc7c(c6)C(=O)N(C6CCC(=O)NC6=O)C7=O)CC5)CC4)cc3)CC2)cc1Cl (stereo partly shown) [compound 222, N-((1r,4r)-4-(3-chloro-4-cyanophenoxy)cyclohexyl)-4-(4-(1-(2-(2,6-dioxopiperidin-3-yl)-1,3-dioxoisoindolin-5-yl)piperidin-4-yl)piperazin-1-yl)benzamide] | 63 | 59 | 60 | 4.75 | – | – | – | – | – | – | – | 33 | 43 | 7.33 | half-life [2, 3]: 9 h; AUC(0-t) [2, 4]: 1980 ng·h/mL; half-life [2, 5]: 11.3 h; AUC(0-t) [2, 6]: 1990 ng·h/mL; Cmax [2, 7]: 122 ng/mL; Tmax [2, 8]: 6 h
4 | N#Cc1ccc(O[C@H]2CC[C@H](NC(=O)c3ccc(N4CCC(N5CCN(c6ccc7c(c6)C(=O)N(C6CCC(=O)NC6=O)C7=O)CC5)CC4)cc3)CC2)cc1Cl (stereo partly shown) [compound 223, N-((1r,4r)-4-(3-chloro-4-cyanophenoxy)cyclohexyl)-4-(4-(4-(2-(2,6-dioxopiperidin-3-yl)-1,3-dioxoisoindolin-5-yl)piperazin-1-yl)piperidin-1-yl)benzamide] | 73 | 91 | 85 | 3.04 | 2425 | – | 6.1 | 2154 | 207 | 5.6 | 4.0 | 30 | 75 | 6.5 | –
5 | N#Cc1ccc(O[C@H]2CC[C@H](NC(=O)c3ccc(N4CCN(C5CN(c6ccc7c(c6)C(=O)N(C6CCC(=O)NC6=O)C7=O)C5)CC4)cc3)CC2)cc1Cl (stereo partly shown) [compound 225, N-((1r,4r)-4-(3-chloro-4-cyanophenoxy)cyclohexyl)-4-(4-(1-(2-(2,6-dioxopiperidin-3-yl)-1,3-dioxoisoindolin-5-yl)azetidin-3-yl)piperazin-1-yl)benzamide] | 61 | 48 | 15 | – | – | – | – | – | – | – | – | – | −23 | – | clearance [2, 9]: 4.33 mL/min/kg; half-life [2, 9]: 6.58 h; AUC(0-t) ([2]; ICR, mouse, in vivo, IV 2 mg/kg, read-out: AUC(0-t)): 6760 ng·h/mL; Vd [2, 9]: 2.23 L/kg; half-life ([2]; ICR, mouse, in vivo, PO 5 mg/kg): 5.8 h; AUC(0-t) ([2]; ICR, mouse, in vivo, PO 5 mg/kg, read-out: AUC(0-t)): 13100 ng·h/mL; Cmax ([2]; ICR, mouse, in vivo, PO 5 mg/kg, read-out: Cmax): 2130 ng/mL; Tmax ([2]; ICR, mouse, in vivo, PO 5 mg/kg, read-out: Tmax): 2 h; F ([2]; PO 5 mg/kg vs IV 2 mg/kg): 77%
6 | CN(c1ccc(C#N)c(Cl)c1)[C@H]1CC[C@H](NC(=O)c2ccc(N3CCN(CC4CCN(c5ccc6c(c5)C(=O)N(C5CCC(=O)NC5=O)C6=O)CC4)CC3)cc2)CC1 (stereo partly shown) [compound 233, N-((1r,4r)-4-((3-chloro-4-cyanophenyl)(methyl)amino)cyclohexyl)-4-(4-((1-(2-(2,6-dioxopiperidin-3-yl)-1,3-dioxoisoindolin-5-yl)piperidin-4-yl)methyl)piperazin-1-yl)benzamide] | 49 | 78 | 87 | 16.8 | – | – | – | – | – | – | – | 30 | 76 | 8.5 | half-life [2, 3]: 26 h; AUC(0-t) [2, 4]: 1040 ng·h/mL; half-life [2, 5]: 41 h; AUC(0-t) [2, 6]: 940 ng·h/mL; Cmax [2, 7]: 60 ng/mL; Tmax [2, 8]: 4 h
7 | CN(c1ccc(C#N)c(Cl)c1)[C@H]1CC[C@H](NC(=O)c2ccc(N3CCC(CN4CCN(c5ccc6c(c5)C(=O)N(C5CCC(=O)NC5=O)C6=O)CC4)CC3)cc2)CC1 (stereo partly shown) [compound 234, N-((1r,4r)-4-((3-chloro-4-cyanophenyl)(methyl)amino)cyclohexyl)-4-(4-((4-(2-(2,6-dioxopiperidin-3-yl)-1,3-dioxoisoindolin-5-yl)piperazin-1-yl)methyl)piperidin-1-yl)benzamide] | 55 | 91 | 93 | – | 693 | 18.3 | 12.5 | 737.5 | 45.0 | 27.0 | 6.0 | 35 | 90 | – | Vss ([2]; IV 1 mg/kg): 17.6 L/kg
8 | CN(c1ccc(C#N)c(Cl)c1)[C@H]1CC[C@H](NC(=O)c2ccc(N3CC(CN4CCN(c5ccc6c(c5)C(=O)N(C5CCC(=O)NC5=O)C6=O)CC4)C3)cc2)CC1 (stereo partly shown) [compound 239, N-((1r,4r)-4-((3-chloro-4-cyanophenyl)(methyl)amino)cyclohexyl)-4-(3-((4-(2-(2,6-dioxopiperidin-3-yl)-1,3-dioxoisoindolin-5-yl)piperazin-1-yl)methyl)azetidin-1-yl)benzamide] | 73 | 91 | 95 | – | 1118 | 13.2 | 8.8 | 1134 | 92.2 | 8.1 | 4.0 | 34 | 94 | – | Vss ([2]; IV 1 mg/kg): 8.25 L/kg
